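Growth conditions: 96-well plates. Treatment: test compound, 48 hours, 5 concentrations. Analysis: linear interpolation between bracketing concentrations; unreached endpoints set to highest concentration. Here, GI50 denotes the concentration required for 50% inhibition of growth.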 Activity calls are given as the source filed them. No stated cut-off is given here; in the data, active = GI50 up to about 1.1 µM and inactive = higher.
Legend:
Assay in all cases: NCI tumour cell line growth inhibition, 48 h
[1] = system: HL-60
[2] = system: HOP-92
[3] = system: KM12
[4] = system: ACHN
[5] = system: 786-0
[6] = system: RXF 393
[7] = system: RPMI-8226
[8] = system: HOP-62
[9] = system: CCRF-CEM
[10] = system: UACC-62
[11] = system: A549
[12] = system: EKVX
[13] = system: SR
[14] = system: Malme-3M
[15] = system: NCI-H23
[16] = system: HCT-116
[17] = system: NCI-H226
[18] = system: UO-31
[19] = system: SF-268
[20] = system: COLO 205

Measured: GI50

O=c1[nH]nc(-c2ccccc2)n1/N=C/c1ccccc1Cl
inactive: [1] 19.5 µM | [2] 67.1 µM | [3] 12 µM | [4] 52.6 µM | [5] 32.5 µM | [6] 25.4 µM | [7] 21.1 µM | [8] 29.4 µM | [9] 28.1 µM | [10] 20 µM | [11] 34.1 µM | [12] 45.9 µM | [13] 30.3 µM | [14] 20.3 µM | [15] 34.7 µM | [16] 33.9 µM | [17] 30.8 µM | [18] 42.8 µM | [19] 53.6 µM | [20] 37.1 µM

COc1ccc(OC)c(/C=C/NC=O)c1
inactive: [1] > 100 µM | [2] > 100 µM | [3] > 100 µM | [4] > 100 µM | [5] > 100 µM | [6] > 100 µM | [7] > 100 µM | [8] > 100 µM | [9] > 100 µM | [10] > 100 µM | [11] > 100 µM | [12] > 100 µM | [13] 22 µM | [14] > 100 µM | [15] > 100 µM | [16] > 100 µM | [17] > 100 µM | [18] > 100 µM | [19] > 100 µM | [20] > 71.3 µM

COc1ccc(-c2csc3c2[N+]2(C)C=CC=C2C3N2CCCC2)cc1 (stereo not given)
inactive: [1] 3.61 µM | [2] 18.7 µM | [3] 15.3 µM | [4] 44.8 µM | [5] 41.6 µM | [6] 21.3 µM | [7] 8.34 µM | [8] 27.2 µM | [9] 28.3 µM | [10] 15.5 µM | [11] 39.9 µM | [12] 20.5 µM | [13] 5.28 µM | [14] 12.2 µM | [15] 10.6 µM | [16] 33 µM | [17] 2.21 µM | [18] 57 µM | [19] 22 µM | [20] 13.6 µM
